Laboratory results as given in the NIST ThermoML archive (doi:10.1021/je500275j).
Numbers after ± are expanded uncertainties.

Assay: xn = mol fraction of the nth substance listed
Conditions: 100 kPa, Liquid; for viscosity: Falling or rolling sphere viscometry; for mass density: Vibrating tube method

C1CCC(C2CCCCC2)CC1 [1,1'-bicyclohexyl] + CCCCC1CCCCC1
viscosity (293.15 K, x1 = 0.1002): 1.43 ± 0.014 mPa·s
viscosity (293.15 K, x1 = 0.2003): 1.585 ± 0.015 mPa·s
viscosity (293.15 K, x1 = 0.2997): 1.757 ± 0.016 mPa·s
viscosity (293.15 K, x1 = 0.4002): 1.952 ± 0.018 mPa·s
viscosity (293.15 K, x1 = 0.4999): 2.184 ± 0.019 mPa·s
viscosity (293.15 K, x1 = 0.6011): 2.45 ± 0.021 mPa·s
viscosity (293.15 K, x1 = 0.7003): 2.759 ± 0.023 mPa·s
viscosity (293.15 K, x1 = 0.7999): 3.132 ± 0.025 mPa·s
viscosity (293.15 K, x1 = 0.9008): 3.563 ± 0.029 mPa·s
viscosity (293.15 K, x1 = 1): 4.017 ± 0.033 mPa·s
mass density (293.15 K, x1 = 0.1002): 809.11 ± 0.15 kg/m3
mass density (293.15 K, x1 = 0.2003): 818.37 ± 0.15 kg/m3
mass density (293.15 K, x1 = 0.2997): 827.41 ± 0.15 kg/m3
mass density (293.15 K, x1 = 0.4002): 836.41 ± 0.15 kg/m3
mass density (293.15 K, x1 = 0.4999): 845.11 ± 0.15 kg/m3
mass density (293.15 K, x1 = 0.6011): 853.76 ± 0.15 kg/m3
mass density (293.15 K, x1 = 0.7003): 862.14 ± 0.15 kg/m3
mass density (293.15 K, x1 = 0.7999): 870.34 ± 0.15 kg/m3
mass density (293.15 K, x1 = 0.9008): 878.53 ± 0.15 kg/m3
mass density (293.15 K, x1 = 1): 886.39 ± 0.15 kg/m3
viscosity (298.15 K, x1 = 0.1002): 1.311 ± 0.014 mPa·s
viscosity (298.15 K, x1 = 0.2003): 1.449 ± 0.015 mPa·s
viscosity (298.15 K, x1 = 0.2997): 1.6 ± 0.015 mPa·s
viscosity (298.15 K, x1 = 0.4002): 1.772 ± 0.016 mPa·s
viscosity (298.15 K, x1 = 0.4999): 1.975 ± 0.018 mPa·s
viscosity (298.15 K, x1 = 0.6011): 2.205 ± 0.019 mPa·s
viscosity (298.15 K, x1 = 0.7003): 2.471 ± 0.021 mPa·s
viscosity (298.15 K, x1 = 0.7999): 2.797 ± 0.023 mPa·s
viscosity (298.15 K, x1 = 0.9008): 3.15 ± 0.026 mPa·s
viscosity (298.15 K, x1 = 1): 3.541 ± 0.029 mPa·s
mass density (298.15 K, x1 = 0.1002): 805.38 ± 0.15 kg/m3
mass density (298.15 K, x1 = 0.2003): 814.66 ± 0.15 kg/m3
mass density (298.15 K, x1 = 0.2997): 823.71 ± 0.15 kg/m3
mass density (298.15 K, x1 = 0.4002): 832.69 ± 0.15 kg/m3
mass density (298.15 K, x1 = 0.4999): 841.44 ± 0.15 kg/m3
mass density (298.15 K, x1 = 0.6011): 850.11 ± 0.15 kg/m3
mass density (298.15 K, x1 = 0.7003): 858.51 ± 0.15 kg/m3
mass density (298.15 K, x1 = 0.7999): 866.72 ± 0.15 kg/m3
mass density (298.15 K, x1 = 0.9008): 874.92 ± 0.15 kg/m3
mass density (298.15 K, x1 = 1): 882.79 ± 0.15 kg/m3
viscosity (303.15 K, x1 = 0.1002): 1.209 ± 0.013 mPa·s
viscosity (303.15 K, x1 = 0.2003): 1.332 ± 0.014 mPa·s
viscosity (303.15 K, x1 = 0.2997): 1.466 ± 0.015 mPa·s
viscosity (303.15 K, x1 = 0.4002): 1.619 ± 0.016 mPa·s
viscosity (303.15 K, x1 = 0.4999): 1.796 ± 0.017 mPa·s
viscosity (303.15 K, x1 = 0.6011): 1.998 ± 0.018 mPa·s
viscosity (303.15 K, x1 = 0.7003): 2.231 ± 0.019 mPa·s
viscosity (303.15 K, x1 = 0.7999): 2.508 ± 0.021 mPa·s
viscosity (303.15 K, x1 = 0.9008): 2.812 ± 0.023 mPa·s
viscosity (303.15 K, x1 = 1): 3.145 ± 0.026 mPa·s
mass density (303.15 K, x1 = 0.1002): 801.64 ± 0.15 kg/m3
mass density (303.15 K, x1 = 0.2003): 810.94 ± 0.15 kg/m3
mass density (303.15 K, x1 = 0.2997): 820.01 ± 0.15 kg/m3
mass density (303.15 K, x1 = 0.4002): 829.01 ± 0.15 kg/m3
mass density (303.15 K, x1 = 0.4999): 837.77 ± 0.15 kg/m3
mass density (303.15 K, x1 = 0.6011): 846.46 ± 0.15 kg/m3
mass density (303.15 K, x1 = 0.7003): 854.87 ± 0.15 kg/m3
mass density (303.15 K, x1 = 0.7999): 863.09 ± 0.15 kg/m3
mass density (303.15 K, x1 = 0.9008): 871.31 ± 0.15 kg/m3
mass density (303.15 K, x1 = 1): 879.19 ± 0.15 kg/m3
viscosity (308.15 K, x1 = 0.1002): 1.12 ± 0.013 mPa·s
viscosity (308.15 K, x1 = 0.2003): 1.229 ± 0.013 mPa·s
viscosity (308.15 K, x1 = 0.2997): 1.349 ± 0.014 mPa·s
viscosity (308.15 K, x1 = 0.4002): 1.485 ± 0.015 mPa·s
viscosity (308.15 K, x1 = 0.4999): 1.643 ± 0.016 mPa·s
viscosity (308.15 K, x1 = 0.6011): 1.821 ± 0.017 mPa·s
viscosity (308.15 K, x1 = 0.7003): 2.022 ± 0.018 mPa·s
viscosity (308.15 K, x1 = 0.7999): 2.272 ± 0.02 mPa·s
viscosity (308.15 K, x1 = 0.9008): 2.53 ± 0.021 mPa·s
viscosity (308.15 K, x1 = 1): 2.817 ± 0.023 mPa·s
mass density (308.15 K, x1 = 0.1002): 797.9 ± 0.15 kg/m3
mass density (308.15 K, x1 = 0.2003): 807.21 ± 0.15 kg/m3
mass density (308.15 K, x1 = 0.2997): 816.31 ± 0.15 kg/m3
mass density (308.15 K, x1 = 0.4002): 825.32 ± 0.15 kg/m3
mass density (308.15 K, x1 = 0.4999): 834.1 ± 0.15 kg/m3
mass density (308.15 K, x1 = 0.6011): 842.81 ± 0.15 kg/m3
mass density (308.15 K, x1 = 0.7003): 851.24 ± 0.15 kg/m3
mass density (308.15 K, x1 = 0.7999): 859.47 ± 0.15 kg/m3
mass density (308.15 K, x1 = 0.9008): 867.7 ± 0.15 kg/m3
mass density (308.15 K, x1 = 1): 875.6 ± 0.15 kg/m3
viscosity (313.15 K, x1 = 0.1002): 1.041 ± 0.013 mPa·s
viscosity (313.15 K, x1 = 0.2003): 1.139 ± 0.013 mPa·s
viscosity (313.15 K, x1 = 0.2997): 1.247 ± 0.014 mPa·s
viscosity (313.15 K, x1 = 0.4002): 1.368 ± 0.014 mPa·s
viscosity (313.15 K, x1 = 0.4999): 1.508 ± 0.015 mPa·s
viscosity (313.15 K, x1 = 0.6011): 1.665 ± 0.016 mPa·s
viscosity (313.15 K, x1 = 0.7003): 1.844 ± 0.017 mPa·s
viscosity (313.15 K, x1 = 0.7999): 2.061 ± 0.018 mPa·s
viscosity (313.15 K, x1 = 0.9008): 2.288 ± 0.02 mPa·s
viscosity (313.15 K, x1 = 1): 2.54 ± 0.022 mPa·s
mass density (313.15 K, x1 = 0.1002): 794.15 ± 0.15 kg/m3
mass density (313.15 K, x1 = 0.2003): 803.48 ± 0.15 kg/m3
mass density (313.15 K, x1 = 0.2997): 812.6 ± 0.15 kg/m3
mass density (313.15 K, x1 = 0.4002): 821.64 ± 0.15 kg/m3
mass density (313.15 K, x1 = 0.4999): 830.43 ± 0.15 kg/m3
mass density (313.15 K, x1 = 0.6011): 839.15 ± 0.15 kg/m3
mass density (313.15 K, x1 = 0.7003): 847.6 ± 0.15 kg/m3
mass density (313.15 K, x1 = 0.7999): 855.85 ± 0.15 kg/m3
mass density (313.15 K, x1 = 0.9008): 864.1 ± 0.15 kg/m3
mass density (313.15 K, x1 = 1): 872.01 ± 0.15 kg/m3
viscosity (318.15 K, x1 = 0.1002): 0.971 ± 0.012 mPa·s
viscosity (318.15 K, x1 = 0.2003): 1.059 ± 0.013 mPa·s
viscosity (318.15 K, x1 = 0.2997): 1.157 ± 0.013 mPa·s
viscosity (318.15 K, x1 = 0.4002): 1.265 ± 0.014 mPa·s
viscosity (318.15 K, x1 = 0.4999): 1.391 ± 0.014 mPa·s
viscosity (318.15 K, x1 = 0.6011): 1.532 ± 0.015 mPa·s
viscosity (318.15 K, x1 = 0.7003): 1.689 ± 0.016 mPa·s
viscosity (318.15 K, x1 = 0.7999): 1.883 ± 0.017 mPa·s
viscosity (318.15 K, x1 = 0.9008): 2.082 ± 0.019 mPa·s
viscosity (318.15 K, x1 = 1): 2.302 ± 0.02 mPa·s
mass density (318.15 K, x1 = 0.1002): 790.39 ± 0.15 kg/m3
mass density (318.15 K, x1 = 0.2003): 799.75 ± 0.15 kg/m3
mass density (318.15 K, x1 = 0.2997): 808.89 ± 0.15 kg/m3
mass density (318.15 K, x1 = 0.4002): 817.94 ± 0.15 kg/m3
mass density (318.15 K, x1 = 0.4999): 826.76 ± 0.15 kg/m3
mass density (318.15 K, x1 = 0.6011): 835.5 ± 0.15 kg/m3
mass density (318.15 K, x1 = 0.7003): 843.97 ± 0.15 kg/m3
mass density (318.15 K, x1 = 0.7999): 852.23 ± 0.15 kg/m3
mass density (318.15 K, x1 = 0.9008): 860.5 ± 0.15 kg/m3
mass density (318.15 K, x1 = 1): 868.43 ± 0.15 kg/m3
